In US20260070902A1, “SULFONYL DERIVATIVES AS CCR6 INHIBITORS” (Hoffmann-La Roche Inc., priority 2022, published 2026):

Columns and labels:
human CCR6 [1] = biological target: T1, human CCR6 (Homo sapiens, UniProt P51684); test: Human CCR6-CRE reporter assay; assay type: cell-based; design: The second construct contained the open reading frame of human CCR6 in the pUNO1 backbone; host or cells: 293FT cells; conditions: relative -Log IC50; 293FT cells transfected with human CCR6 and CRE-luciferase reporter; 6 μM Forskolin, 6 nM CCL20; 5 h
T1 sequence (P51684 1-374): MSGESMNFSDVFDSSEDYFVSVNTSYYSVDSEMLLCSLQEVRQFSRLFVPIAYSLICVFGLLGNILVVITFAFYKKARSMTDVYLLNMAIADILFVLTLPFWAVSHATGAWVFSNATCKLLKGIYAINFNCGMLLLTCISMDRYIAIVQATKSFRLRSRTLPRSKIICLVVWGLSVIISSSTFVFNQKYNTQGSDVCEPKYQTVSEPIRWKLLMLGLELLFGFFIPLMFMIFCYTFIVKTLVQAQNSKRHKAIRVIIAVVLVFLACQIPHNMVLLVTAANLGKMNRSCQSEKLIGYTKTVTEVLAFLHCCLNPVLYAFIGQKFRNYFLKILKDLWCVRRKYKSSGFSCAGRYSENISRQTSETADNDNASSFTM
Summary of the method: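 293FT cells transiently co-transfected with human CCR6 and a CRE-luc2P reporter, used 48 h later. Compounds incubated with cells in medium containing 6 μM Forskolin and 6 nM CCL20 (assay-medium levels), 0.1% DMSO final, 5 h at 37° C; luminescence read, relative −Log IC50 from four-parameter fit.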

human CCR6 [2] = biological target: T1, human CCR6; test: CHO-K1 CCR6 chemotaxis assay towards CCL20; assay type: cell-based; conditions: relative -Log IC50; CHO-K1 cells overexpressing human CCR6; migration towards 100 ng/ml CCL20; 4 h
Excerpt: CHO-K1 CCR6 Chemotaxis Assay Towards CCL20
Cells overexpressing human CCR6 were used in the chemotaxis assay (DiscoverX, cAMP Hunter™ CHO-K1 CCR6 Gi Cell Line). Growth medium of these cells consisted of DMEM/F12, non-essential Amino acids (1×NEAA, Gibco 11140050), 10% FBS and 1× pen/strep (Gibco 15140). For the chemotaxis assay, Corning Transwell plates were used with a pore size of 8 m (Corning 351164). Cells were harvested using trypsin and diluted to 4*10^6 cells/ml in chemotaxis medium (DMEM, 0.25% BSA, pen/strep). Compounds were four-fold serially diluted in DMSO. Further dilutions were made in chemotaxis medium. Cells were incubated with test compounds for 30 min at 37° C. prior to initiation of the assay (2*10^6 cells/ml). Final DMSO concentration in the assay was 0.2%. Wells of the Transwell plates were filled with 200 μl chemotaxis medium containing 100 ng/ml CCL20 (R&D systems 360-MP). 50 μl of the cell/compound suspension was added to the inserts of the Transwell plates (100,000 cells/insert). The Transwell plates were placed in an incubator at 37° C., 5% CO2 for 4 h. After 4 h, the number of migrated cells was quantified using CellTiter Glo (Promega). Percentage inhibition values were calculated based on the low and high signal obtained with 0.2% DMSO in chemotaxis medium without and with CCL20, respectively. The relative −Log IC50 was determined with GraphPad Prism 9 using a four-parameter dose-response model.

| SMILES | IC50 (human CCR6 [1]) [nM] | IC50 (human CCR6 [2]) [nM] |
| --- | --- | --- |
| O=C1NCCc2ccc(-c3ccc(S(=O)(=O)[C@H]4CC[C@H](Nc5ccc(S(F)(F)(F)(F)F)cc5)CC4)cc3)cc21 [Example 60, 7-(4-{[trans-4-{[4-(pentafluoro-λ^6-sulfanyl)phenyl]Amino}cyclohexyl]sulfonyl}phenyl)-1,2,3,4-tetrahydroisoquinolin-1-one] | 158 | 7.94 |
| O=C1NCCc2cc(-c3ccc(S(=O)(=O)[C@H]4CC[C@H](Nc5ccc(S(F)(F)(F)(F)F)cc5)CC4)cc3)ccc21 [Example 61, 6-(4-{[trans-4-{[4-(pentafluoro-λ^6-sulfanyl)phenyl]Amino}cyclohexyl]sulfonyl}phenyl)-1,2,3,4-tetrahydroisoquinolin-1-one] | 126 | 31.6 |
| CC(C)c1cnc2ccc(-c3ccc(S(=O)(=O)[C@H]4CC[C@H](Nc5ccc(S(F)(F)(F)(F)F)cc5)CC4)cc3)cn12 [Example 63, 4-(pentafluoro-λ^6-sulfanyl)-N-[trans-4-{4-[3-(propan-2-yl)imidazo[1,2-a]pyridin-6-yl]benzenesulfonyl}cyclohexyl]aniline] | 39.8 | 12.6 |
| O=c1[nH]nc2ccc(-c3ccc(S(=O)(=O)[C@H]4CC[C@H](Nc5ccc(S(F)(F)(F)(F)F)cc5)CC4)cc3)cn12 [Example 66, 6-(4-{[trans-4-{[4-(pentafluoro-λ^6-sulfanyl)phenyl]Amino}cyclohexyl]sulfonyl}phenyl)-2H,3H-[1,2,4]triazolo[4,3-a]pyridin-3-one] | 63.1 | 39.8 |
| Cc1cnc2ccc(-c3ccc(S(=O)(=O)N4CCC(Nc5ccc(S(F)(F)(F)(F)F)cc5)CC4)cn3)cn12 [Example 69, 1-[(6-{3-methylimidazo[1,2-a]pyridin-6-yl}pyridin-3-yl)sulfonyl]-N-[4-(pentafluoro-λ^6-sulfanyl)phenyl]piperidin-4-amine] | 794 | 794 |
| N#Cc1cnc2ccc(-c3ccc(S(=O)(=O)N4CCC(Nc5ccc(S(F)(F)(F)(F)F)cc5)CC4)c(F)c3)cn12 [Example 73, 6-{3-fluoro-4-[(4-{[4-(pentafluoro-λ^6-sulfanyl)phenyl]Amino}piperidin-1-yl)sulfonyl]phenyl}imidazo[1,2-a]pyridine-3-carbonitrile] | 501 | 631 |
| O=S(=O)(c1ccc(-c2ccc3nccn3c2)cc1F)N1CCC(Nc2ccc(S(F)(F)(F)(F)F)cc2)CC1 [Example 74, 1-(2-fluoro-4-{imidazo[1,2-a]pyridin-6-yl}benzenesulfonyl)-N-[4-(pentafluoro-λ^6-sulfanyl)phenyl]piperidin-4-amine] | 501 | 794 |
| N#Cc1cnc2ccc(-c3ccc(S(=O)(=O)N4CCC(Nc5ccc(S(F)(F)(F)(F)F)cc5)CC4)cn3)cn12 [Example 76, 6-{5-[(4-{[4-(pentafluoro-λ^6-sulfanyl)phenyl]Amino}piperidin-1-yl)sulfonyl]pyridin-2-yl}imidazo[1,2-a]pyridine-3-carbonitrile] | 794 | 501 |
| CC(C)c1nnc2ccc(-c3ccc(S(=O)(=O)N4CCC(Nc5cccc(S(F)(F)(F)(F)F)c5)CC4)cc3)cn12 [Example 84, N-[3-(pentafluoro-λ^6-sulfanyl)phenyl]-1-{4-[3-(propan-2-yl)-[1,2,4]triazolo[4,3-a]pyridin-6-yl]benzenesulfonyl}piperidin-4-amine] | 50.1 | 126 |
| CN(C)C(=O)c1ccc(-c2ccc(S(=N)(=O)[C@H]3CC[C@H](Nc4ccc(S(F)(F)(F)(F)F)cc4)CC3)cc2)cc1 (stereo partly drawn) [Example 92, N,N-dimethyl-4′-{[trans-4-{[4-(pentafluoro-λ^6-sulfanyl)phenyl]Amino}cyclohexyl]sulfonimidoyl}-[1,1′-biphenyl]-4-carboxamide] | 200 | 1580 |
| CNC(=O)c1ccc(-c2ccc(S(=N)(=O)[C@H]3CC[C@H](Nc4ccc(S(F)(F)(F)(F)F)cc4)CC3)cc2)cc1 (stereo partly drawn) [Example 95, N-methyl-4′-{[trans-4-{[4-(pentafluoro-λ^6-sulfanyl)phenyl]Amino}cyclohexyl]sulfonimidoyl}-[1,1′-biphenyl]-4-carboxamide] | 251 | 501 |
| N=S(=O)(c1ccc(-c2ccc(C(N)=O)cc2)cc1)[C@H]1CC[C@H](Nc2ccc(S(F)(F)(F)(F)F)cc2)CC1 (stereo partly drawn) [Example 96, 4′-{[trans-4-{[4-(pentafluoro-λ^6-sulfanyl)phenyl]Amino}cyclohexyl]sulfonimidoyl}-[1,1′-biphenyl]-4-carboxamide] | 158 | 501 |
| CNC(=O)c1cccc(-c2ccc(S(=N)(=O)[C@H]3CC[C@H](Nc4ccc(S(F)(F)(F)(F)F)cc4)CC3)cc2)c1 (stereo partly drawn) [Example 98, N-methyl-4′-{[trans-4-{[4-(pentafluoro-λ^6-sulfanyl)phenyl]Amino}cyclohexyl]sulfonimidoyl}-[1,1′-biphenyl]-3-carboxamide] | 200 | 251 |
| N=S(=O)(c1ccc(-c2cccc(C(N)=O)c2)cc1)[C@H]1CC[C@H](Nc2ccc(S(F)(F)(F)(F)F)cc2)CC1 (stereo partly drawn) [Example 99, 4′-{[trans-4-{[4-(pentafluoro-λ^6-sulfanyl)phenyl]Amino}cyclohexyl]sulfonimidoyl}-[1,1′-biphenyl]-3-carboxamide] | 200 | 501 |
| CNC(=O)c1ccc(-c2ccc(S(=N)(=O)[C@H]3CC[C@H](Nc4ccc(S(F)(F)(F)(F)F)cc4)CC3)cc2)cn1 (stereo partly drawn) [Example 101, N-methyl-5-(4-{[trans-4-{[4-(pentafluoro-λ^6-sulfanyl)phenyl]Amino}cyclohexyl]sulfonimidoyl}phenyl)pyridine-2-carboxamide] | 316 | 794 |
| Cc1nnc2ccc(-c3ccc(S(=N)(=O)[C@H]4CC[C@H](Nc5ccc(S(F)(F)(F)(F)F)cc5)CC4)cc3)cn12 (stereo partly drawn) [Example 105, (4-{3-methyl-[1,2,4]triazolo[4,3-a]pyridin-6-yl}phenyl)[trans-4-{[4-(pentafluoro-λ^6-sulfanyl)phenyl]Amino}cyclohexyl](imino)-λ^6-sulfanone] | 398 | 631 |
| CNC(=O)c1ccc(-c2ccc(S(=N)(=O)N3CCC(Nc4ccc(S(F)(F)(F)(F)F)cc4)CC3)cc2)cn1 (stereo not drawn) [Example 121, N-methyl-5-{4-[(4-{[4-(pentafluoro-λ^6-sulfanyl)phenyl]Amino}piperidin-1-yl)sulfonimidoyl]phenyl}pyridine-2-carboxamide] | 251 | 158 |
| N=S(=O)(c1ccc(-c2ccc3c(c2)CC(=O)N3)cc1)N1CCC(Nc2ccc(S(F)(F)(F)(F)F)cc2)CC1 (stereo not drawn) [Example 123, 5-{4-[(4-{[4-(pentafluoro-λ^6-sulfanyl)phenyl]Amino}piperidin-1-yl)sulfonimidoyl]phenyl}-2,3-dihydro-1H-indol-2-one] | 251 | 200 |
| N=S(=O)(c1ccc(-c2ccc3nccn3c2)cc1)N1CCC(Nc2ccc(S(F)(F)(F)(F)F)cc2)CC1 (stereo not drawn) [Example 124, (4-{imidazo[1,2-a]pyridin-6-yl}phenyl)(4-{[4-(pentafluoro-λ^6-sulfanyl)phenyl]Amino}piperidin-1-yl)(imino)-λ^6-sulfanone] | 200 | 126 |
| CNC(=O)c1cc(-c2ccc(S(=O)(=O)N3CCC(Nc4ccc(S(F)(F)(F)(F)F)cc4)CC3)cc2)ccc1F [Example 138, 4-fluoro-N-methyl-4′-[(4-{[4-(pentafluoro-λ^6-sulfanyl)phenyl]amino}piperidin-1-yl)sulfonyl]-[1,1′-biphenyl]-3-carboxamide] | 63.1 | 20 |
| CNC(=O)c1ccc(-c2ccc(S(=O)(=O)N3CCC(Nc4ccc(S(F)(F)(F)(F)F)cc4)CC3)cc2)cc1F [Example 139, 3-fluoro-N-methyl-4′-[(4-{[4-(pentafluoro-λ^6-sulfanyl)phenyl]amino}piperidin-1-yl)sulfonyl]-[1,1′-biphenyl]-4-carboxamide] | 63.1 | 10 |
